In this experiment the test system is Mycobacterium tuberculosis. The experiment in a line: Antimycobacterial activity against multidrug-resistant Mycobacterium tuberculosis LAM-1 at 0.73 uM after 4 to 6 days by BACTEC MGIT 960 assay. The experiment is classed as functional, organism-based.

Active and inactive are the calls of the source. The rule behind the calls is not given here.

On to `NNC(=O)c1ccncc1` [ISONIAZID], for which the result was inactive.

The record behind these values is ChEMBL document CHEMBL3232765, “Anti-mycobacterial activity of 1,3-diaryltriazenes” (Eur J Med Chem, 2014).
